Reference: patent US20130079309A1, “Method Of Treating Acute Lung Injury Using Sphingosine 1 Phosphate Analogs Or Sphingosine 1 Phosphate Receptor Agonists” (The Board of Trustees of the University of Illinois, priority 2010, published 2013)

Experiments:
S1P receptor 1 (S1PR1) [1] = biological target: T1, S1P receptor 1 (S1PR1) (Homo sapiens, UniProt P21453); assay: S1PR1 protein expression in HPAEC by Western blot; format: cell-based; set-up: Cells were collected and S1PR1 expression level was detected by Western blot; endogenous in cells; host or cells: HPAEC (human pulmonary artery endothelial cells); settings: 1 μM (SEW2871 10 μM), 4 h
T1 sequence (P21453 whole entry): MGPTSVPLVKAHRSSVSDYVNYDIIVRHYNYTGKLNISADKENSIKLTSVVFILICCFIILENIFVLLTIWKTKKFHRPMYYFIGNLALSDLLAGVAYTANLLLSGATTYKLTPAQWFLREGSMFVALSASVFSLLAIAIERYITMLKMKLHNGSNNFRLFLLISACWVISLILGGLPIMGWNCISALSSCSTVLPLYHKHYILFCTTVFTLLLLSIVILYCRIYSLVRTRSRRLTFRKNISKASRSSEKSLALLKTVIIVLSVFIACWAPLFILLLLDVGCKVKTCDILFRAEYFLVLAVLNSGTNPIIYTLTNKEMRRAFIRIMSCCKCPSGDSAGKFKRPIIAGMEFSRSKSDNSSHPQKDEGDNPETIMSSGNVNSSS
Excerpt: Cells were collected and S1PR1 expression level was detected by Western blot.

β-arrestin = settings: 1 μM (SEW2871 10 μM; (S)-FTY720-phosphonate 1, 10, 50 μM), 5 h
Procedure: After another 2 h-incubation with fluorescence substrate, the fluorescence intensity (blue and green channels) were detected and the blue/green emission ratio was used as the activation indicator.

MLC = assay: Western blotting of HPAEC lysates for phospho-MLC; format: cell-based, human; settings: 5 min
Procedure: (§1) After treatment as outlined for individual experiments, confluent HPAEC were lysed for Western blotting with phospho-MLC, pan-MLC, phospho-ERK, or pan-ERK antibodies. […] Membranes were then immunoblotted with primary antibodies (1:500-1000, 4° C., overnight) followed by secondary antibodies conjugated to horseradish peroxidase (1:5000, room temperature, 30 min) and detected with enhanced chemiluminescence (Pierce ECL or SuperSignal West Dura; Pierce Biotechnology, Rockford, Ill.) on Biomax MR film (Carestream Health, Rochester, N.Y.).

ERK = assay: Western blotting of HPAEC lysates for phospho-ERK; format: cell-based, human; settings: 5 min
Procedure: as §1

HPAEC [2] = assay: Transendothelial electrical resistance (TER) of HPAEC; format: cell-based, human; settings: 10 μM, within 60 min
Procedure: Cells were grown at 37° C. in a 5% CO2 incubator, and passages 6 to 9 were used for experiments. Media were changed 1 day before experimentation.

S1P receptor 1 (S1PR1) [3] = biological target: T1, S1P receptor 1 (S1PR1); assay: Ubiquitination of S1PR1 in HPAEC (immunoprecipitation, ubiquitin Ab); settings: 1 μM, 1 h
Excerpt: S1PR1 was immunoprecipitated by S1PR1Ab, and ubiquitination of S1PR1 was detected by ubiquitin Ab.

HPAEC [4] = assay: Intracellular calcium by Fura-2; format: cell-based, human; settings: 1 μM
Procedure: To further explore the mechanistic differences in barrier regulation, intracellular calcium responses to the FTY720 analogs, S1P, and FTY720 were examined using Fura-2 (Harbeck et al., 2006, Sci STKE 2006: p16). HPAEC plated on 25-mm glass coverslips were loaded with 1 μM Fura-2/acetoxymethyl ester (Invitrogen, Carlsbad, Calif.) for 20 min at 37° C. in KRBH5 buffer (Krebs-Ringer-bicarbonate solution containing 119 mM NaCl, 4.7 mM KCl, 2.5 mM CaCl2, 1 mM MgCl2, 1 mM KH2PO4, 25 mM NaHCO3, mM HEPES-NaOH (pH 7.4), and 5 mM glucose). After replacement of the Fura-2 loading buffer with fresh KRBH5, coverslips were placed into the specimen stage of an inverted fluorescence microscope (Nikon TE-2000U). A Nikon Super Fluor 10× objective was used for these studies. Filters (340- and 380-nm excitation and 530-nm emission) were used for Fura-2 dual excitation ratio imaging. […] Fura-2 ratios were converted to [Ca^2+] using the equation: [Ca^2+]=(Kd′[(R−Rmin)/(Rmax−R)]×Sf/Sb) (Grynkiewicz et al., 1985, J Biol Chem 260: 3440-3450), where Kd′ is the dissociation constant for Fura-2 in the cytosol (225 nM) and Sf and Sb are the measured emission intensities at 380 nm for Ca^2+-free and Ca^2+-bound Fura-2, respectively. Data summaries for all Ca^2+ measurements are expressed as the means±S.E.

HPAEC [5] = assay: Transwell transendothelial permeability assay (FITC-dextran); format: cell-based, human; settings: 1 μM (3R, 3S 25 μM), 1 h before FITC-dextran, 2-h incubation
Procedure: As a complementary approach to further characterize the barrier-protective effects of these FTY720 analogs in vitro, the permeability of FITC-labeled dextran across the pulmonary EC monolayer was assayed in response to treatment by the FTY720 analogs. […] Data were normalized to unstimulated control. n=3 independent experiments per condition; *, p<0.01 versus unstimulated condition (see FIG. 26).

HPAEC [6] = settings: Camp et al., 2009; cited from earlier work
[7] = system: LPS-induced lung injury in C57BL/6 mice; assay: LPS-induced murine lung injury model; settings: 1S 0.1-5.0 mg/kg i.p. single dose 1 h after LPS 2.5 mg/kg i.t.; 18 h; FTY720 0.5 mg/kg, S1P 0.026 mg/kg
Procedure: For experiments performed in intact animals, male C57BL/6 mice (8-10 weeks) were anesthetized with intraperitoneal ketamine and acetylpromazine mixture according to the approved protocol. Escherichia coli LPS solution (2.5 mg/kg) or sterile saline was instilled intratracheally via a 20-gauge catheter. Simultaneously, mice received either FTY720 or analogs (in doses: 0.01, 0.1, 0.5, 1, and 5 mg/kg i.p.) or PBS as vehicle. The animals were allowed to recover for 18 h. BAL and lungs were collected and stored at −70° C. for evaluation of lung injury.
Pure BAL fluids prepared for protein measurement or myeloperoxidase activity (MPO) lung homogenates were used to test albumin concentration. The assay was performed in 96-well plastic plates (Nalge Nunc A/S, Roskilde, Denmark). Plates were coated with mouse albumin (Bethyl Lab, Montgomery, Tex.), washed, and blocked. Aliquots (100-μl) of the sample or standard and 100 μl of goat anti-mouse albumin antibody (horseradish peroxidase-conjugated) (1:50,000) were then added, followed by incubation at 37° C. for 1 h. Finally, the substrate 3,3′,5,5′-tetramethylbenzidine was added for 10 min, and the reaction stopped by adding 100 μl of 2 M H2SO4. The absorbance at 450 nm was read on a kinetic microplate reader (Molecular Devices).
Myeloperoxidase (MPO) was isolated and measured from snap-frozen right lungs as follows (see also Remick et al., 1990, Am J Pathol 136: 49-60). The right lung was homogenized in 1 ml of 50 mM potassium phosphate, pH 6.0, with 0.5% hexadecyltrimethylammonium bromide. The resulting homogenate was sonicated and then centrifuged at 12,000 g for 15 min. The supernatant was mixed 1:30 with assay buffer (100 mM potassium phosphate, pH 6.0, 0.005% H2O2, 0.168 mg/ml o-dianisidine hydrochloride), and absorbance read at 490 nm. MPO units were calculated as the change in absorbance with respect to time.
Peripheral blood was examined by the Missouri University Research Animal Diagnostic Laboratory (Columbia, Mo.) for determination of total blood cell counts and differentials in blood samples.
Values are shown as the mean±S.E. Data were analyzed using a standard Student's t test or one-way analysis of variance, groups were compared by Newman-Keuls test, and significance in all cases was defined at p<0.05.

HPAEC [8] = assay: Pharmacologic inhibitor effects on barrier enhancement (TER); settings: 1 μM agonist, 60 min
Procedure: Endothelial cells were grown to confluence in polycarbonate wells containing evaporated gold microelectrodes (surface area, 10^−3 cm^2) in series with a large gold counter electrode (1 cm^2) connected to a phase-sensitive lock-in amplifier. Current was applied across the electrodes by a 4,000-Hz AC voltage source with amplitude of 1 V in series with a 1 MΩ resistance to approximate a constant current source (˜1 μA). The in-phase and out-of-phase voltages between the electrodes were monitored in real time with the lock-in amplifier and subsequently converted to scalar measurements of transendothelial impedance, of which resistance was the primary focus. TER was monitored for 30 minutes to establish a baseline resistance (R0) which, for bovine pulmonary endothelium, was typically between 8 to 12×10^3Ω (wells with R0<7×10^3Ω were rejected). As cells adhere and spread out on the microelectrode, TER increases (maximal at confluence), whereas cell retraction, rounding, or loss of adhesion is reflected by a decrease in TER. These measurements provide a highly sensitive biophysical assay that indicates the state of cell shape and focal adhesion. Values from each microelectrode were pooled at discrete time points and plotted versus time as the mean±SE of the mean. TER values from each microelectrode were pooled as discrete time points and plotted versus time as the mean±S.E.M.
In this experiment, confluent HPAEC were plated on gold microelectrodes and then stimulated with 1 μM S1P, FTY720, 1R, 1S, 2R, or 2S after either a 2-h preincubation with 100 ng/ml PTX, 30-min preincubation with 200 μM genistein (Gen), or 2-h preincubation with 2 mM MβCD or their respective vehicle controls. Data were pooled from multiple TER experiments (4-10 independent experiments per condition) and expressed as percentage inhibition of maximal barrier enhancement at 60 min relative to agonist-only control.

SMILES: CCCCCCCCCCCCC/C=C/[C@@H](O)[C@@H](N)COP(=O)(O)O [S1P, sphingosine 1 phosphate]
- S1PR1 expression level compared to control (S1P receptor 1 (S1PR1) [1]): 38.1%
- activation of β-arrestin (blue/green emission ratio) (β-arrestin): strongly activated
- MLC phosphorylation (MLC): increased MLC and ERK phosphorylation
- ERK phosphorylation (ERK): increased MLC and ERK phosphorylation
- maximal TER change (HPAEC [2]): somewhat barrier-disruptive
- ubiquitination of S1PR1 at 1 h (S1P receptor 1 (S1PR1) [3]): significant ubiquitination
- intracellular calcium [Ca2+]i (HPAEC [4]): produced a transient Ca^2+ spike
- EC permeability to FITC-dextran vs control EC (HPAEC [5]): significantly decreased permeability
- doses that can disrupt EC monolayer integrity (HPAEC [6]): > 10 µM
- capillary leak as total BAL protein, relative to PBS control [7]: reduction in permeability by 1S was comparable to that achieved by S1P or FTY720
- % Inhibition of Maximal TER Response (of Agonist-Only Control), PTX (HPAEC [8]; 2-h preincubation 100 ng/ml PTX): 98.35 (±0.25) %
- % Inhibition of Maximal TER Response (of Agonist-Only Control), MβCD (HPAEC [8]; 2-h preincubation 2 mM MβCD): 81.5 (±8.0) %
- % Inhibition of Maximal TER Response (of Agonist-Only Control), Gen (HPAEC [8]; 30-min preincubation 200 μM genistein): 42.4 (±13.9) %
